Measurements published in patent US9790169B2, “IDO inhibitors” (BRISTOL-MYERS SQUIBB COMPANY, priority 2015, dated 2017).
“And” between values parts separate entries of the source, which are not always exact repeats. Equal entries are not always repeated.

Molecular target: human IDO1 (Homo sapiens, UniProt P14902)
Experiment: Assessment of human IDO-1 inhibitory activity in Hela cells (Interferon-gamma stimulated HeLa cells, Ehrlich reagent, absorbance 490 nm)
Type: cell-based
Design: endogenous in cells; host or cells: HeLa cells stimulated with interferon-gamma
Conditions: Hela Human IDO-1 cellular assay
Outline: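 IDO activity induced by 18 h IFN-γ (human 10 ng/ml or murine 5 ng/ml, final) after 1 h compound pre-treatment of HeLa cells at 37 °C. Supernatant kynurenine detected via Ehrlich reagent absorbance at 490 nm following 3% TCA at 50 °C; IC50 set against no-IFN-γ and untreated-stimulated controls.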

Chain of human IDO1 (P14902 whole entry): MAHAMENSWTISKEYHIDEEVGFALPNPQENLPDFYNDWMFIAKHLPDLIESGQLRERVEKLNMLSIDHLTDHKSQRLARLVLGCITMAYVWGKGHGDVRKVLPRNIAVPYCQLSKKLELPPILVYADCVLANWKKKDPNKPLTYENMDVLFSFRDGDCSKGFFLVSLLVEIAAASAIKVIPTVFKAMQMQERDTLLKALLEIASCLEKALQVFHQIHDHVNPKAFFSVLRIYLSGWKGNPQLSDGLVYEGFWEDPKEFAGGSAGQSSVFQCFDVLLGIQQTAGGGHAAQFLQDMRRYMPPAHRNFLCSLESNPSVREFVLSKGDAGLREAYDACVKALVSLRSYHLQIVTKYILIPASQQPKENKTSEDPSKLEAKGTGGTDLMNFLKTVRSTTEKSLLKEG

Compound	IC50
COCC(CC(=O)O)c1ccc(N2CCOC(C)(C)C2)c(Nc2ccc(Cl)cc2)c1 (single isomer, unassigned) [Example 1315 E1, 3-(3-((4-Chlorophenyl)amino)-4-(2,2-dimethylmorpholino)phenyl)-4-methoxybutanoic acid]	> 50 nM
COCC(CC(=O)O)c1ccc(N2CCOC(C)(C)C2)c(Nc2ccc(C#N)cc2)c1 (single isomer, unassigned) [Example 1316, 3-(3-((4-cyanophenyl)amino)-4-(2,2-dimethylmorpholino)phenyl)-4-methoxybutanoic acid]	> 50 nM
COCC(CC(=O)O)c1ccc(N2CCOC(C)(C)C2)c(NC(=O)Nc2ccc(Cl)cc2F)c1 (single isomer, unassigned) [Example 1318 E1, 3-(3-(3-(4-Chloro-2-fluorophenyl)ureido)-4-(2,2-dimethylmorpholino)phenyl)-4-methoxybutanoic acid]	> 50 nM
CCC(CC(=O)O)c1ccc(N2CCOC(C)(C)C2)c(Nc2ccc(Cl)cc2)c1 (single isomer, unassigned) [Example 1319 E1, 3-(3-((4-Chlorophenyl)amino)-4-(2,2-dimethylmorpholino)phenyl)pentanoic acid]	< 50 nM
CCC(CC(=O)O)c1ccc(N2CCOC(C)(C)C2)c(Nc2ccc(C#N)cc2)c1 (single isomer, unassigned) [Example 1320, 3-(3-((4-cyanophenyl)amino)-4-(2,2-dimethylmorpholino)phenyl)pentanoic acid]	> 50 nM and < 50 nM
CCC(CC(=O)O)c1ccc(N2CCOC(C)(C)C2)c(NC(=O)Nc2ccc(Cl)cc2F)c1 (single isomer, unassigned) [Example 1322 E1, 3-(3-(3-(4-Chloro-2-fluorophenyl)ureido)-4-(2,2-dimethylmorpholino)phenyl)pentanoic acid]	> 50 nM
CCOc1ncc(Nc2cc([C@H](CC)CC(O)C(F)(F)F)ccc2N(CC)C2CCOCC2)cn1 (single isomer, unassigned) [Example 1336 D1]	< 50 nM
CCOc1ncc(Nc2cc([C@@H](CC)CC(C)(C)O)ccc2N(CC)C2CCOCC2)cn1 (single isomer, unassigned) [Example 1345]	> 50 nM
CCOc1ncc(Nc2cc(C(CC)CC(C)(C)O)ccc2N2CCC(c3ccccc3)CC2)cn1 (single isomer, unassigned) [Example 1349, 4-(3-((2-Ethoxypyrimidin-5-yl)amino)-4-(4-phenylpiperidin-1-yl)phenyl)-2-methylhexan-2-ol]	> 50 nM
CCOc1ncc(Nc2cc(C(COC)CC(=O)O)ccc2N2CCC(c3ccccc3)CC2)cn1 (single isomer, unassigned) [Example 1351, 3-(3-((2-ethoxypyrimidin-5-yl)amino)-4-(4-phenylpiperidin-1-yl)phenyl)-4-methoxybutanoic acid]	< 50 nM
COCC(CC(=O)O)c1ccc(N2CCC(c3ccccc3)CC2)c(NC(=O)Nc2ccc(Cl)cc2F)c1 (single isomer, unassigned) [Example 1357 E1, 3-(3-(3-(4-Chloro-2-fluorophenyl)ureido)-4-(4-phenylpiperidin-1-yl)phenyl)-4-methoxybutanoic acid]	> 50 nM
COCC(CC(=O)O)c1ccc(N2CCC(c3ccccc3)CC2)c(NC(=O)Nc2ccc(Cl)cc2F)c1 (single isomer, unassigned) [Example 1357 E2, 3-(3-(3-(4-Chloro-2-fluorophenyl)ureido)-4-(4-phenylpiperidin-1-yl)phenyl)-4-methoxybutanoic acid]	< 50 nM
CCOc1ncc(Nc2cc([C@H](CC)CC(C)(C)O)ccc2N(CC)C2CCOCC2)cn1 (single isomer, unassigned) [Example 1368]	> 50 nM
CCN(c1ccc(C(C)(C)CC(=O)O)cc1Nc1ccc(C#N)cc1)C1CCC(C)(O)CC1 (stereo not drawn) [Example 4, 3-(3-((4-cyanophenyl)amino)-4-(ethyl(4-hydroxy-4-methylcyclohexyl)amino)phenyl)-3-methylbutanoic acid]	< 50 nM
CCOc1ncc(Nc2cc(C(C)(C)CC(=O)O)ccc2N(CCOC)C2CCOCC2)cn1 [Example 17, 3-(3-((2-ethoxypyrimidin-5-yl)amino)-4-((2-methoxyethyl)(tetrahydro-2H-pyran-4-yl)amino)phenyl)-3-methylbutanoic acid]	> 50 nM
COCCN(c1ccc(C(C)(C)CC(=O)O)cc1NC(=O)Nc1ccc(C)cc1)C1CCOCC1 [Example 18, 3-(4-((2-Methoxyethyl)(tetrahydro-2H-pyran-4-yl)amino)-3-(3-(p-tolyl)ureido)phenyl)-3-methylbutanoic acid]	> 50 nM
COCCN(c1ccc(C(C)(C)CC(=O)O)cc1NC(=O)Nc1ccc(C#N)cc1)C1CCOCC1 [Example 19, 3-(3-(3-(4-cyanophenyl)ureido)-4-((2-methoxyethyl)(tetrahydro-2H-pyran-4-yl)amino)phenyl)-3-methylbutanoic acid]	> 50 nM
COCCN(c1ccc(C(C)(C)CC(=O)O)cc1NC(=O)Nc1ccc(Cl)cc1F)C1CCOCC1 [Example 20, 3-(3-(3-(4-chloro-2-fluorophenyl)ureido)-4-((2-methoxyethyl)(tetrahydro-2H-pyran-4-yl)amino)phenyl)-3-methylbutanoic acid]	< 50 nM
CCCN(c1ccc(C(C)(C)CC(=O)O)cc1Nc1cnc(OC)nc1)C1CCOCC1 [Example 23, 3-(3-((2-methoxypyrimidin-5-yl)amino)-4-(propyl(tetrahydro-2H-pyran-4-yl)amino)phenyl)-3-methylbutanoic acid]	< 50 nM
CCCN(c1ccc(C(C)(C)CC(=O)O)cc1Nc1cnc(OCC)nc1)C1CCOCC1 [Example 24, 3-(3-((2-ethoxypyrimidin-5-yl)amino)-4-(propyl(tetrahydro-2H-pyran-4-yl)amino)phenyl)-3-methylbutanoic acid]	< 50 nM
CCCN(c1ccc(C(C)(C)CC(=O)O)cc1NC(=O)Nc1ccc(C)cc1)C1CCOCC1 [Example 25, 3-Methyl-3-(4-(propyl(tetrahydro-2H-pyran-4-yl)amino)-3-(3-(p-tolyl)ureido)phenyl)butanoic acid]	< 50 nM
CCN(c1ccc(C(CC)(CC)CC(=O)O)cc1Nc1ccc(C#N)cc1)C1CCOCC1 [Example 27, 3-(3-((4-cyanophenyl)amino)-4-(ethyl(tetrahydro-2H-pyran-4-yl)amino)phenyl)-3-ethylpentanoic acid]	< 5 nM
CCN(c1ccc(C(CC)(CC)CC(=O)O)cc1Nc1cnc(OC)nc1)C1CCOCC1 [Example 28, 3-ethyl-3-(4-(ethyl(tetrahydro-2H-pyran-4-yl)amino)-3-((2-methoxypyrimidin-5-yl)amino)phenyl)pentanoic acid]	< 50 nM
CCOc1ncc(Nc2cc(C(CC)(CC)CC(=O)O)ccc2N(CC)C2CCOCC2)cn1 [Example 29, 3-(3-((2-ethoxypyrimidin-5-yl)amino)-4-(ethyl(tetrahydro-2H-pyran-4-yl)amino)phenyl)-3-ethylpentanoic acid]	< 5 nM

Second part, the compound after the results:

IC50	Compound
< 5 nM	COCC(CC(=O)O)c1ccc(N2CCC(c3ccccc3)CC2)c(Nc2ccc(C#N)cc2)c1 (single isomer, unassigned) [Example 1350 E1, 3-(3-((4-Cyanophenyl)amino)-4-(4-phenylpiperidin-1-yl)phenyl)-4-methoxybutanoic acid]
< 5 nM	CCOc1ncc(Nc2cc(C(COC)CC(=O)O)ccc2N2CCC(c3ccccc3)CC2)cn1 (single isomer, unassigned) [Example 1354, 3-(3-((2-ethoxypyrimidin-5-yl)amino)-4-(4-phenylpiperidin-1-yl)phenyl)-4-methoxybutanoic acid]
< 5 nM	CC[C@@H](CC(=O)O)c1ccc(N(CC)C2CCOCC2)c(Nc2cnc(C)nc2)c1 (single isomer, unassigned) [Example 1361]
< 5 nM	CCc1ncc(Nc2cc([C@@H](CC)CC(=O)O)ccc2N(CC)C2CCOCC2)cn1 (single isomer, unassigned) [Example 1362]
< 5 nM	CC[C@H](CC(=O)O)c1ccc(N(CC)C2CCOCC2)c(Nc2cnc(C)nc2)c1 (single isomer, unassigned) [Example 1363]
< 5 nM	CCc1ncc(Nc2cc([C@H](CC)CC(=O)O)ccc2N(CC)C2CCOCC2)cn1 (single isomer, unassigned) [Example 1364]
< 5 nM	CCN(c1ccc([C@@H](COC)CC(=O)O)cc1Nc1ccc(C#N)cc1)C1CCOCC1 (stereo in doubt) [compound 349, 3-(3-((4-Cyanophenyl)amino)-4-(ethyl(tetrahydro-2H-pyran-4-yl)amino)phenyl)-4-methoxybutanoic acid]
< 5 nM	COCCN(c1ccc(C(C)(C)CC(=O)O)cc1Nc1ccc(Cl)cc1)C1CCOCC1 [Example 15, 3-(3-((4-Chlorophenyl)amino)-4-((2-methoxyethyl)(tetrahydro-2H-pyran-4-yl)amino)phenyl)-3-methylbutanoic acid]
< 5 nM	COCCN(c1ccc(C(C)(C)CC(=O)O)cc1Nc1ccc(C#N)cc1)C1CCOCC1 [Example 16, 3-(3-((4-cyanophenyl)amino)-4-((2-methoxyethyl)(tetrahydro-2H-pyran-4-yl)amino)phenyl)-3-methylbutanoic acid]
< 5 nM	CCCN(c1ccc(C(C)(C)CC(=O)O)cc1Nc1ccc(Cl)cc1)C1CCOCC1 [Example 21, 3-(3-((4-Chlorophenyl)amino)-4-(propyl(tetrahydro-2H-pyran-4-yl)amino)phenyl)-3-methylbutanoic acid]
< 5 nM	CCCN(c1ccc(C(C)(C)CC(=O)O)cc1Nc1ccc(C#N)cc1)C1CCOCC1 [Example 22, 3-(3-((4-cyanophenyl)amino)-4-(propyl(tetrahydro-2H-pyran-4-yl)amino)phenyl)-3-methylbutanoic acid]
< 5 nM	CCN(c1ccc(C(CC)(CC)CC(=O)O)cc1Nc1ccc(Cl)cc1)C1CCOCC1 [Example 26, 3-(3-((4-Chlorophenyl)amino)-4-(ethyl(tetrahydro-2H-pyran-4-yl)amino)phenyl)-3-ethylpentanoic acid]
